# Results reported in patent publication US20220132847A1, “CINNOLINIUM COMPOUNDS FOR USE IN A METHOD OF CONTROLLING UNWANTED PLANT GROWTH” (SYNGENTA CROP PROTECTION AG, priority 2019, published 2022).
# Tests used:
# Test in all cases: Post-emergence efficacy, glasshouse
# Type in all cases: in vivo
# [1] = system: Digitaria sanguinalis (DIGSA); details: Digitaria sanguinalis, post-emergence, 312 h; Application Rate 1000 g/Ha; evaluated after 13 days; 100=total damage to plant, 0=no damage to plant; read-out: Control of weed species after post-emergence application, DIGSA
# Method in brief: (§1)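 Plants grown 14 days in glasshouse (24/16° C, 14 h light, 65% humidity), then sprayed post-emergence with active ingredient in IF50 solvent/emulsifier mix, diluted in 0.25% or 1% Empicol ESC70 + 1% ammonium sulphate. Damage scored 13 days later, 0–100 (100 = total damage).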
# [2] = system: Chenopodium album (CHEAL); details: Chenopodium album, post-emergence, 312 h; Application Rate 1000 g/Ha; evaluated after 13 days; 100=total damage to plant, 0=no damage to plant; read-out: Control of weed species after post-emergence application, CHEAL
# Method in brief: as §1
# [3] = system: Echinochloa crus-galli (ECHCG); details: Echinochloa crus-galli, post-emergence, 312 h; Application Rate 1000 g/Ha; evaluated after 13 days; 100=total damage to plant, 0=no damage to plant; read-out: Control of weed species after post-emergence application, ECHCG
# Method in brief: as §1
# [4] = system: Amaranthus palmeri (AMAPA); details: Amaranthus palmeri, post-emergence, 312 h; Application Rate 1000 g/Ha; evaluated after 13 days; 100=total damage to plant, 0=no damage to plant; read-out: Control of weed species after post-emergence application, AMAPA
# Method in brief: as §1
# Eleusine indica (ELEIN) = details: Eleusine indica, post-emergence, 312 h; Application Rate 1000 g/Ha; evaluated after 13 days; 100=total damage to plant, 0=no damage to plant; read-out: Control of weed species after post-emergence application, ELEIN
# Method in brief: as §1
# [5] = system: Ipomoea hederacea (IPOHE); details: Ipomoea hederacea, post-emergence, 312 h; Application Rate 1000 g/Ha; evaluated after 13 days; 100=total damage to plant, 0=no damage to plant; read-out: Control of weed species after post-emergence application, IPOHE
# Method in brief: as §1
# [6] = system: Euphorbia heterophylla (EPHHL); details: Euphorbia heterophylla, post-emergence, 312 h; Application Rate 1000 g/Ha; evaluated after 13 days; 100=total damage to plant, 0=no damage to plant; read-out: Control of weed species after post-emergence application, EPHHL
# Method in brief: as §1
# Setaria faberi (SETFA) = details: Setaria faberi, post-emergence, 312 h; Application Rate 1000 g/Ha; evaluated after 13 days; 100=total damage to plant, 0=no damage to plant; read-out: Control of weed species after post-emergence application, SETFA
# Method in brief: as §1
# Lolium perenne (LOLPE) = details: Lolium perenne, post-emergence, 312 h; Application Rate 1000 g/Ha; evaluated after 13 days; 100=total damage to plant, 0=no damage to plant; read-out: Control of weed species after post-emergence application, LOLPE
# Method in brief: as §1
Compound,pest or weed control at 1000 g/ha [1] [%],pest or weed control at 1000 g/ha [2] [%],pest or weed control at 1000 g/ha [3] [%],pest or weed control at 1000 g/ha [4] [%],pest or weed control at 1000 g/ha (Eleusine indica (ELEIN)) [%],pest or weed control at 1000 g/ha [5] [%],pest or weed control at 1000 g/ha [6] [%],pest or weed control at 1000 g/ha (Setaria faberi (SETFA)) [%],pest or weed control at 1000 g/ha (Lolium perenne (LOLPE)) [%]
"CC[n+]1cc(C(=O)[N-]S(C)(=O)=O)c2ccccc2n1 [Compound A22, (2-ethylcinnolin-2-ium-4-carbonyl)-methylsulfonyl-azanide]",80,70,50,70,70,90,60,70,60
"CCP(=O)([O-])c1c[n+](C)nc2ccccc12 [Compound A48, ethyl-(2-methylcinnolin-2-ium-4-yl)phosphinate]",70,100,80,100,100,70,100,100,40
C[n+]1cc(C(=O)[N-]S(=O)(=O)CCC(F)(F)F)c2ccccc2n1 [Compound A43],70,30,30,60,90,80,90,50,20
C[n+]1cc(C(=O)[N-]S(=O)(=O)c2ccccc2)c2ccccc2n1 [Compound A35],10,0,0,20,0,20,40,10,0
